# Measurements taken from ChEMBL document CHEMBL4334472, “Multi-target-directed-ligands acting as enzyme inhibitors and receptor ligands” (Eur J Med Chem, 2019).
# Columns and labels:
# Acetylcholinesterase [1] = target: T1, Acetylcholinesterase (Homo sapiens, UniProt P22303); assay: Inhibition of human AChE
# [2] = target: Thromboxane A2 receptor (Homo sapiens) (UniProt P21731); assay: Antagonist activity at TP receptor in human washed platelet assessed as U46619 induced platelet aggregation after 6 mins; parameters: scale not given: the % may be the effect or the level left
# [3] = target: Prostaglandin G/H synthase 1 (Homo sapiens, UniProt P23219); assay: Inhibition of COX1 in human platelets after 30 mins by mass spectrometry analysis
# [4] = target: Prostaglandin G/H synthase 2 (Homo sapiens, UniProt P35354); assay: Inhibition of COX2 in lympho-monocytes (unknown origin) preincubated for 30 mins followed by LPS challenged measured after 24 hrs by EIA; assay type: cell-based
# [5] = target: Amine oxidase [flavin-containing] A (Homo sapiens, UniProt P21397); assay: Inhibition of human MAOA
# [6] = target: Amyloid-beta precursor protein (Homo sapiens) (UniProt P05067); assay: Inhibition of amyloid beta (1 to 42 residues) (unknown origin) self aggregation at 10 uM ThT-based fluorescence assay relative to control
# [7] = target: Neuronal acetylcholine receptor subunit alpha-7 (Homo sapiens, UniProt P36544); assay: Inhibition of alpha7 nAChR (unknown origin)
# Cholinesterase [8] = target: T2, Cholinesterase (Homo sapiens, UniProt P06276); assay: Inhibition of human BChE
# [9] = target: Neuronal acetylcholine receptor; alpha4/beta2 (Homo sapiens, UniProt P17787+P43681); assay: Inhibition of alpha4beta2 nAChR (unknown origin); assay type: protein-complex assay
# [10] = target: Sodium-dependent serotonin transporter (Homo sapiens, UniProt P31645); assay: Inhibition of 5HTT (unknown origin)
# Butyrylcholinesterase = Butyrylcholinesterase (Rattus norvegicus, UniProt Q9JKC1); assay: Inhibition of rat BChE
# Acetylcholinesterase [11] = target: Acetylcholinesterase (Rattus norvegicus, UniProt P37136); assay: Inhibition of rat AChE
# [12] = target: 5-hydroxytryptamine receptor 1A (Mus musculus, UniProt Q64264); assay: Agonist activity at mouse 5-HT1A expressed in HEK293 cells after 2 to 5 mins; assay type: cell-based
# Cholinesterase [13] = target: T2, Cholinesterase; assay: Inhibition of recombinant human BChE using butyrylthiocholine iodide as substrate preincubated for 5 mins followed by substrate addition measured after 5 mins
# [14] = target: 5-hydroxytryptamine receptor 6 (Homo sapiens, UniProt P50406); assay: Displacement of [3H]-LSD from recombinant human 5HT6 receptor expressed in CHOK1 cells measured after 60 mins by microbeta scintillation counting method; assay type: cell-based
# [15] = target: Prostaglandin G/H synthase 1 (Ovis aries, UniProt P05979); assay: Inhibition of ovine COX1
# [16] = target: Transient receptor potential cation channel subfamily V member 1 (Homo sapiens, UniProt Q8NER1); assay: Inhibition of TRPV1 (unknown origin)
# [17] = target: Prostaglandin G/H synthase 2 (Ovis aries, UniProt P79208); assay: Inhibition of ovine COX2
# Histamine H3 receptor = Histamine H3 receptor (Homo sapiens, UniProt Q9Y5N1); assay: Inhibition of human histamine H3 receptor
# Cholinesterase [18] = target: Cholinesterase (Equus caballus, UniProt P81908); assay: Inhibition of equine BChE
# [19] = target: Amine oxidase [flavin-containing] B (Homo sapiens, UniProt P27338); assay: Inhibition of human MAOB
# Beta-secretase 1 = Beta-secretase 1 (Homo sapiens, UniProt P56817); assay: Inhibition of BACE1 (unknown origin) using EVNLDAEF as substrate by fluorescence assay
# [20] = Inhibition of nAChR (unknown origin) after 1 to 2 mins; parameters: species or system Homo sapiens
# [21] = target: Muscarinic acetylcholine receptor M1 (Homo sapiens, UniProt P11229); assay: Inhibition of M1R (unknown origin)
# Acetylcholinesterase [22] = target: T1, Acetylcholinesterase; assay: Inhibition of recombinant human AChE using acetylthiocholine iodide as substrate preincubated for 5 mins followed by substrate addition measured after 5 mins
# T2 sequence (P06276 whole entry): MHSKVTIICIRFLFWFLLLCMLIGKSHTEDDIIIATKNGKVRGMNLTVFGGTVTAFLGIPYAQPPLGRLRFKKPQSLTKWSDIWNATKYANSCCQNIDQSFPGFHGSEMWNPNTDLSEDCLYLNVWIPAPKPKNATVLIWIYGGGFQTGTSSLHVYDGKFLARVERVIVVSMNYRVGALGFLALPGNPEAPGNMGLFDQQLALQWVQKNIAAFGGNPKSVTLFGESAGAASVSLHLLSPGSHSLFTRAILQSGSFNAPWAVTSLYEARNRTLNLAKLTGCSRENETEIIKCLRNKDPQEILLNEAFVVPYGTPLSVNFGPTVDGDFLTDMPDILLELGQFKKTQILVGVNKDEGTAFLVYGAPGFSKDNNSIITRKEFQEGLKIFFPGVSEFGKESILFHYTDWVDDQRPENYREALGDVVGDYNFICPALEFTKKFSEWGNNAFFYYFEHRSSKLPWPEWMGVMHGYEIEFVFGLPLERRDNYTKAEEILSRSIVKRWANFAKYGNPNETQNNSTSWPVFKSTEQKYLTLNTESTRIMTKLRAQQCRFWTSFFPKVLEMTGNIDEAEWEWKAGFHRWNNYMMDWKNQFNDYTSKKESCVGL
# T1 sequence (P22303 whole entry): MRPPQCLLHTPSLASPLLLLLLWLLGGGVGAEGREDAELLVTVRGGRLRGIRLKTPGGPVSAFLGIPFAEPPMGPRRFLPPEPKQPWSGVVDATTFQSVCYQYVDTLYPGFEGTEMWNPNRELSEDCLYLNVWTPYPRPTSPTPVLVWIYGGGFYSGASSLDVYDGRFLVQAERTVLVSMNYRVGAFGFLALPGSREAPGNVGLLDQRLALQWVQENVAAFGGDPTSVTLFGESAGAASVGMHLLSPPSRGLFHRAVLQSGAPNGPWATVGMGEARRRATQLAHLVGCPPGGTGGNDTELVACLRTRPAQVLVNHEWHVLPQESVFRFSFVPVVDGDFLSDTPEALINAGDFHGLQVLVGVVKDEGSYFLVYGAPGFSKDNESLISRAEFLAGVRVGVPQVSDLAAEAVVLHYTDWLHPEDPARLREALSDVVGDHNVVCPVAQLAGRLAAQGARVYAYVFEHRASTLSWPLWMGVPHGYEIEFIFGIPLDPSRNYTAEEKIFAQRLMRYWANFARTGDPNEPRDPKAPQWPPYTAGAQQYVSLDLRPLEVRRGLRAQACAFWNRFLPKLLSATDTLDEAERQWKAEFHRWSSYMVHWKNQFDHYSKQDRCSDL
# Sequence of Amyloid-beta precursor protein (Homo sapiens) (P05067 whole entry, the tested form may be a part): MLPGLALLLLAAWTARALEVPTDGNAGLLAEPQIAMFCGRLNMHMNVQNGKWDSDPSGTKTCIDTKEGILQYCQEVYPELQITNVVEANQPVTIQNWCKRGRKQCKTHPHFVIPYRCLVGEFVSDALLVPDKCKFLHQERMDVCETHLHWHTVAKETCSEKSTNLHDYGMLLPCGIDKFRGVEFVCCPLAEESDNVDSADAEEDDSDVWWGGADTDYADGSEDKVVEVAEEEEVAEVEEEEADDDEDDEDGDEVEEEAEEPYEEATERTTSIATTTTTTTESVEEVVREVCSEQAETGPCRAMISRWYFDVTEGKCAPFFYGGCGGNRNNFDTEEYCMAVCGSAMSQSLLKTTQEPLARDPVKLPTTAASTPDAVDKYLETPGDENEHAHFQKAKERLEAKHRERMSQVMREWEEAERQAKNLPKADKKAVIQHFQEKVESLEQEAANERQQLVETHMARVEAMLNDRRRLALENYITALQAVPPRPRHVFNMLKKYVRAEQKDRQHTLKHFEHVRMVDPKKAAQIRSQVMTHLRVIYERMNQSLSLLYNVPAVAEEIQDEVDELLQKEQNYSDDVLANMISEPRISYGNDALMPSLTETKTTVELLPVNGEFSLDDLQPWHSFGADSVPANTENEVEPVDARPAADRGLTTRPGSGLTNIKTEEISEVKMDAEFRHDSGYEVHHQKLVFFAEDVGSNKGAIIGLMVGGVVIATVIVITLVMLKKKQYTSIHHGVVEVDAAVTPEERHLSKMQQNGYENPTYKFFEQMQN
# Sequence of Thromboxane A2 receptor (Homo sapiens) (P21731 whole entry): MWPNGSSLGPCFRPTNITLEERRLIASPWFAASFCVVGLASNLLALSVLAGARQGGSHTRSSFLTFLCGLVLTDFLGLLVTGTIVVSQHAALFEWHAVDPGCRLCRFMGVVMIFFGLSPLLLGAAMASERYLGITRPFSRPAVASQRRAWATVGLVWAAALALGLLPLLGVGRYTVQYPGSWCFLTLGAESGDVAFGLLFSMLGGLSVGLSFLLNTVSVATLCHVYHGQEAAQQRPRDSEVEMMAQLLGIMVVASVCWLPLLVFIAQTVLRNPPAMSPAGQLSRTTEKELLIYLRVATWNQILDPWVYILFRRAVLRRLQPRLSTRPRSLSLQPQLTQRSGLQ
# Sequence of Prostaglandin G/H synthase 2 (Homo sapiens, UniProt P35354) (P35354 whole entry): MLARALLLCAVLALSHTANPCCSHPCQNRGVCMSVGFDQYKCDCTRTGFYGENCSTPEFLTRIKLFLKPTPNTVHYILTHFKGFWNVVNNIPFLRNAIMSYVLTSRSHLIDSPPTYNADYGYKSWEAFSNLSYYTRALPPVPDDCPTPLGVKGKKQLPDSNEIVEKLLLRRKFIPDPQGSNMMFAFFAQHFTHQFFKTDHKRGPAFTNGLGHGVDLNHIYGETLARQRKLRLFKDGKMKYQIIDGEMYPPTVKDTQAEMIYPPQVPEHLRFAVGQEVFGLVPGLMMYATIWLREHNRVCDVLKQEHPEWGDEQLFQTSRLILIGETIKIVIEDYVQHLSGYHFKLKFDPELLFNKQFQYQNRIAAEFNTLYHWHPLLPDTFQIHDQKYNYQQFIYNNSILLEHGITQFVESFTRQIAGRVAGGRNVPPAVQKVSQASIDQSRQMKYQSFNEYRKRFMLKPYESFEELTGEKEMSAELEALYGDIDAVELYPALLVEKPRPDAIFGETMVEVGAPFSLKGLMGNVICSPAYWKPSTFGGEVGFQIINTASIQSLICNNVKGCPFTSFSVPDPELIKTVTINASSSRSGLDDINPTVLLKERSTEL
# Sequence of Prostaglandin G/H synthase 1 (Homo sapiens, UniProt P23219) (P23219 whole entry): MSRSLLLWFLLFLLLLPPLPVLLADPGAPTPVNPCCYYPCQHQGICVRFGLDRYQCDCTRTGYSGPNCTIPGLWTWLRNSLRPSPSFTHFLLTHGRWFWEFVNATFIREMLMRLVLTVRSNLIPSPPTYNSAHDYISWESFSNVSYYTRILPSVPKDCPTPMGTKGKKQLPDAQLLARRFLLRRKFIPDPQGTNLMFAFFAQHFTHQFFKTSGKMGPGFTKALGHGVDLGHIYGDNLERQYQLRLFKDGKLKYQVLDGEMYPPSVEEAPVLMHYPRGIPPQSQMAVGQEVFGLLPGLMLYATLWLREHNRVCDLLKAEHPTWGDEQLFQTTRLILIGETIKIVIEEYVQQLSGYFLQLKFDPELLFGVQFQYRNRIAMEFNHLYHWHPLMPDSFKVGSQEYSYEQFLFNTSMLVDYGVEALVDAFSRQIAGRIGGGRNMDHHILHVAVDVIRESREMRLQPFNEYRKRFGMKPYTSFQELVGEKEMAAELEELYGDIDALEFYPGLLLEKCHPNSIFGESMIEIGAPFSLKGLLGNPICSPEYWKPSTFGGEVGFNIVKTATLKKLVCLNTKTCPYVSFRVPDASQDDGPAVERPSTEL
# Sequence of 5-hydroxytryptamine receptor 6 (P50406 whole entry): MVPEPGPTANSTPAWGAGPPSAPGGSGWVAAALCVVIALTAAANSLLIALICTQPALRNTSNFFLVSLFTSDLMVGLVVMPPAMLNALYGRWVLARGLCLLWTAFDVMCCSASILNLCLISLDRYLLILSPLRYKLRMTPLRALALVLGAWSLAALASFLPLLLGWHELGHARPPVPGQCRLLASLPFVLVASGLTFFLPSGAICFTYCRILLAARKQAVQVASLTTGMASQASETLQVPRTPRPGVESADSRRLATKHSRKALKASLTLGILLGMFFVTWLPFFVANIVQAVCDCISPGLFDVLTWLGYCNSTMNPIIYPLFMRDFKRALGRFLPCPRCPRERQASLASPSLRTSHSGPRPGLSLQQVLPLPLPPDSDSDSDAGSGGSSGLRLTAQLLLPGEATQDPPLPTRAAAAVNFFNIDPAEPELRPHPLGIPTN
# Sequence of Transient receptor potential cation channel subfamily V member 1 (Q8NER1 whole entry): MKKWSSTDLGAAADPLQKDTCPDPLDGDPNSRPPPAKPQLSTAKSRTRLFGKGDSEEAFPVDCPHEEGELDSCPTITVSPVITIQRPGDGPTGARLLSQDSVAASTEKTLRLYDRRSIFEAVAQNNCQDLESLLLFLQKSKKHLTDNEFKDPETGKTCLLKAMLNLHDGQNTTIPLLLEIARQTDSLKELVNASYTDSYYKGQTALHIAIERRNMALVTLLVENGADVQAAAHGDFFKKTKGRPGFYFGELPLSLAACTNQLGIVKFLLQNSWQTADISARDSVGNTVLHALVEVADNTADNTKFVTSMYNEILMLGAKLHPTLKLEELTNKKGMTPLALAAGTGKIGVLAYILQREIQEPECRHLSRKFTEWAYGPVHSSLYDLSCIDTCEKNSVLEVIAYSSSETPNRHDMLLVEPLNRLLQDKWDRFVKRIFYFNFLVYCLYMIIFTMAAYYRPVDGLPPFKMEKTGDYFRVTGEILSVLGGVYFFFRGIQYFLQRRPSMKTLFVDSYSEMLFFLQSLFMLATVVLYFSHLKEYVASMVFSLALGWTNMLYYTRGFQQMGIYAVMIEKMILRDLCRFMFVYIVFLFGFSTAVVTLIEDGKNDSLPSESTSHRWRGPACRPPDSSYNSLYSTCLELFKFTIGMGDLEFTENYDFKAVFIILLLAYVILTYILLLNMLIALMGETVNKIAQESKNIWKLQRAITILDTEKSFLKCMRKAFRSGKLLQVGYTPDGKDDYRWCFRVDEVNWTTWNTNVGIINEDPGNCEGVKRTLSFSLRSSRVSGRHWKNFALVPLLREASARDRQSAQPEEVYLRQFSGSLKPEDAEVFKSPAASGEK
compound,measurement,setting,value
COc1cc2c(cc1OC)-c1cc(OCCN3CCCCC3)nc(=O)n1CC2,IC50,Acetylcholinesterase [1],5 µM
Cc1ccc(Nc2c(F)cccc2Cl)c(CNS(=O)(=O)C(F)(F)F)c1,Activity,[2],5.9%
same,IC50,[3],16.1 µM
same,IC50,[4],400 nM
C#CCN(C)Cc1cc2cc(OCCCC3CCN(Cc4ccccc4)CC3)ccc2n1C,IC50,[5],0.3 nM
COc1ccccc1CN1CCN(CCCCCOc2cccc3[nH]c4ccccc4c23)CC1,inhibition,[6],34%
same,Ki,[7],66.8 µM
same,IC50,Acetylcholinesterase [1],2.4 µM
same,IC50,Cholinesterase [8],600 nM
same,Ki,[9],35.3 µM
N#Cc1ccc2[nH]cc(CCCCN3CCN(c4c5c(nc6ccccc46)CCCC5)CC3)c2c1,IC50,[10],15.8 nM
same,IC50,Butyrylcholinesterase,3.3 µM
same,IC50,Acetylcholinesterase [11],76 nM
same,EC50,[12],107 nM
CN(CCCN1CCN(c2cccc3c2ccn3Cc2ccccc2)CC1)Cc1ccccc1,IC50,Cholinesterase [13],196 nM
same,Ki,[14],240 nM
CC[C@@H](/C=C/[C@@H](C)[C@H]1CC[C@H]2C3=CC[C@H]4C[C@@H](O)CC[C@]4(C)[C@H]3CC[C@]12C)C(C)C,IC50,[15],16.2 µM
same,IC50,[16],1400 nM
same,IC50,[17],7.8 µM
Cc1ccc(Nc2c(F)cccc2Cl)c(CNc2nnn[nH]2)c1,Activity,[2],5.6%
same,IC50,[3],13.2 µM
same,IC50,[4],14 nM
O=c1c2cc(OCCCN3CCCCC3)ccc2nc2n1CCC2,Ki,Histamine H3 receptor,2500 nM
same,IC50,Acetylcholinesterase [1],5.4 µM
same,IC50,Cholinesterase [18],248 µM
O=C(c1ccc(OCCCc2cnc[nH]2)cc1)C1CC1 [CIPROXIFAN],IC50,[19],1900 nM
COc1ccc2nc3c(c(NCCCCCCCCNC(=S)NC45CC6CC(CC(C6)C4)C5)c2c1)CCCC3,inhibition,[6],77%
same,IC50,Acetylcholinesterase [1],1.6 µM
same,IC50,Beta-secretase 1,18.4 µM
same,IC50,[20],1100 nM
same,IC50,Cholinesterase [8],300 nM
same,IC50,[21],2200 nM
Cc1c(OCc2ccccc2)cccc1N1CCN(CCCCCCNc2c3c(nc4c2CCCC4)CCCC3)CC1,IC50,Acetylcholinesterase [22],14 nM
same,IC50,Cholinesterase [13],22 nM
same,Ki,[14],18 nM
